ChEMBL document CHEMBL5696441 (Nat Chem Biol, 2011)

Experiments:
[1] = target: Serine/threonine-protein kinase PLK2 (Homo sapiens) (UniProt Q9NYY3); experiment: Inhibition of PLK2 (unknown origin) assessed as remaining activity at 1 uM by Kinome scan method relative to control
[2] = target: Inhibitor of nuclear factor kappa-B kinase subunit epsilon (Homo sapiens) (UniProt Q14164); experiment: Inhibition of human IKKepsilon assessed as residual activity at 1 uM using RBER-GSK3 as substrate in presence of 33P-ATP by ProQinase assay relative to control
[3] = target: CDK7/Cyclin H/MNAT1 (Homo sapiens) (UniProt P51946+P50613+P51948); experiment: Inhibition of human CDK7/CyclinH/MAT1 assessed as residual activity at 1 uM using RBER-CHKtide as substrate in presence of 33P-ATP by ProQinase assay relative to control; format: protein-complex assay
[4] = target: Cyclin-Y/Cyclin-dependent kinase 16 (Homo sapiens) (UniProt Q00536+Q8ND76); experiment: Inhibition of human PCTAIRE1/CyclinY assessed as residual activity at 1 uM using RBER-GSK3 as substrate in presence of 33P-ATP by ProQinase assay relative to control; format: protein-complex assay
[5] = target: Maternal embryonic leucine zipper kinase (Homo sapiens) (UniProt Q14680); experiment: Inhibition of human MELK assessed as residual activity at 1 uM using RBER-CHKtide as substrate in presence of 33P-ATP by ProQinase assay relative to control
[6] = target: Eukaryotic translation initiation factor 2-alpha kinase 1 (Homo sapiens) (UniProt Q9BQI3); experiment: Inhibition of human HRI assessed as residual activity at 1 uM using casein as substrate in presence of 33P-ATP by ProQinase assay relative to control
[7] = target: Dual specificity tyrosine-phosphorylation-regulated kinase 1A (Homo sapiens) (UniProt Q13627); experiment: Inhibition of human DYRK1A assessed as residual activity at 1 uM using RBER-CHKtide as substrate in presence of 33P-ATP by ProQinase assay relative to control
[8] = target: Serine/threonine-protein kinase Nek3 (Homo sapiens) (UniProt P51956); experiment: Inhibition of human NEK3 assessed as residual activity at 1 uM using RBER-CHKtide as substrate in presence of 33P-ATP by ProQinase assay relative to control
[9] = target: T1, Ephrin type-B receptor 4 (Homo sapiens) (UniProt P54760); experiment: Inhibition of human EPHB4 assessed as residual activity at 1 uM using polyEY as substrate in presence of 33P-ATP by ProQinase assay relative to control
T1 sequence (whole entry): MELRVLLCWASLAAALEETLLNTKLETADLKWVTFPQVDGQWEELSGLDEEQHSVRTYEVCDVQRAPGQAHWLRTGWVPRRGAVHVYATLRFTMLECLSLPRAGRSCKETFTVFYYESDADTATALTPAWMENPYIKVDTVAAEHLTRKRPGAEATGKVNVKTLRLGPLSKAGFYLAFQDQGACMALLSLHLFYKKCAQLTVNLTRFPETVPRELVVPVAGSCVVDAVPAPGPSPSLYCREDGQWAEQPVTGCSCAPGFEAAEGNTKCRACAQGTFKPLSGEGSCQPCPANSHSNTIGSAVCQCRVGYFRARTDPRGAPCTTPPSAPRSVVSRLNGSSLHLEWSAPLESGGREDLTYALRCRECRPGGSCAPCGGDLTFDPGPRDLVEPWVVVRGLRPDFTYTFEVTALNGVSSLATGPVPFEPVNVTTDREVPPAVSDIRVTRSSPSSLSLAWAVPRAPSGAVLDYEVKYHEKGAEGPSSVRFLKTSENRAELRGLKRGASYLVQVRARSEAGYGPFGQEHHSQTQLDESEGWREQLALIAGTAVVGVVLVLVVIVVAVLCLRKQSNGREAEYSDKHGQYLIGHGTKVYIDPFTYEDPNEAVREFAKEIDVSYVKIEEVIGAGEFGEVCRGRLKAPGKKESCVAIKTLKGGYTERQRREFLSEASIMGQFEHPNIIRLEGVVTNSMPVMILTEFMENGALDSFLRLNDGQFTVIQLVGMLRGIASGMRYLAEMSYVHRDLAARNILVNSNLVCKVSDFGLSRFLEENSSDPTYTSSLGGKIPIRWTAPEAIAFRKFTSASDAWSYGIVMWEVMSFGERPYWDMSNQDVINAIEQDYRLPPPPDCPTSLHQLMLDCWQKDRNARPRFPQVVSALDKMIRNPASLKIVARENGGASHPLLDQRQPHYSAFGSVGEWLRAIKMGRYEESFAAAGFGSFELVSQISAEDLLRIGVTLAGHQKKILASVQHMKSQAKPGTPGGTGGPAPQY

[10] = target: Serine/threonine-protein kinase tousled-like 1 (Homo sapiens) (UniProt Q9UKI8); experiment: Inhibition of TLK1 (unknown origin) assessed as remaining activity at 1 uM by Kinome scan method relative to control
[11] = target: STE20/SPS1-related proline-alanine-rich protein kinase (Homo sapiens) (UniProt Q9UEW8); experiment: Inhibition of human STK39 assessed as residual activity at 1 uM using RBER-CDC25tide as substrate in presence of 33P-ATP by ProQinase assay relative to control
[12] = target: Death-associated protein kinase 3 (Homo sapiens) (UniProt O43293); experiment: Inhibition of human DAPK3 assessed as residual activity at 1 uM using RBER-GSK3 as substrate in presence of 33P-ATP by ProQinase assay relative to control
[13] = target: Serine/threonine-protein kinase 24 (Homo sapiens) (UniProt Q9Y6E0); experiment: Inhibition of MST3 (unknown origin) assessed as remaining activity at 1 uM by Kinome scan method relative to control
[14] = target: Mitogen-activated protein kinase kinase kinase kinase 5 (Homo sapiens) (UniProt Q9Y4K4); experiment: Inhibition of human MAP4K5 assessed as residual activity at 1 uM using casein as substrate in presence of 33P-ATP by ProQinase assay relative to control
[15] = target: Ribosomal protein S6 kinase alpha-2 (Homo sapiens) (UniProt Q15349); experiment: Inhibition of C-terminal kinase domain RPS6KA2 (unknown origin) assessed as remaining activity at 1 uM by Kinome scan method relative to control
[16] = target: Calcium/calmodulin-dependent protein kinase type II subunit delta (Homo sapiens) (UniProt Q13557); experiment: Inhibition of human CAMK2D assessed as residual activity at 1 uM using RBER-CHKtide as substrate in presence of 33P-ATP by ProQinase assay relative to control
[17] = target: Serine/threonine-protein kinase 26 (Homo sapiens) (UniProt Q9P289); experiment: Inhibition of human MST4 assessed as residual activity at 1 uM using RB-CTF as substrate in presence of 33P-ATP by ProQinase assay relative to control
Sequence of Serine/threonine-protein kinase 26 (Homo sapiens) (Q9P289 2-416 limits assumed): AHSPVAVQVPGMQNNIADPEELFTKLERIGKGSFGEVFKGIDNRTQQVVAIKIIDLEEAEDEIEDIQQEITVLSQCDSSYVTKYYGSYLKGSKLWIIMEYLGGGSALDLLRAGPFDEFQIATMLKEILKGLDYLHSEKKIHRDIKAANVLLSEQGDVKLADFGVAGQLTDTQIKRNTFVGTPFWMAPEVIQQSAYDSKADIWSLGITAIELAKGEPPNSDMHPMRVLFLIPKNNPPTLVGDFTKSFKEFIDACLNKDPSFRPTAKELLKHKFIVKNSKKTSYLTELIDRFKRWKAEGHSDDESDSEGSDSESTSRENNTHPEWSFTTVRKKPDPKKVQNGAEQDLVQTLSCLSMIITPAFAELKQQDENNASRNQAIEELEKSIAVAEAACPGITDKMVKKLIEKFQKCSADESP

Sequence of Maternal embryonic leucine zipper kinase (Homo sapiens) (Q14680 whole entry, looked up): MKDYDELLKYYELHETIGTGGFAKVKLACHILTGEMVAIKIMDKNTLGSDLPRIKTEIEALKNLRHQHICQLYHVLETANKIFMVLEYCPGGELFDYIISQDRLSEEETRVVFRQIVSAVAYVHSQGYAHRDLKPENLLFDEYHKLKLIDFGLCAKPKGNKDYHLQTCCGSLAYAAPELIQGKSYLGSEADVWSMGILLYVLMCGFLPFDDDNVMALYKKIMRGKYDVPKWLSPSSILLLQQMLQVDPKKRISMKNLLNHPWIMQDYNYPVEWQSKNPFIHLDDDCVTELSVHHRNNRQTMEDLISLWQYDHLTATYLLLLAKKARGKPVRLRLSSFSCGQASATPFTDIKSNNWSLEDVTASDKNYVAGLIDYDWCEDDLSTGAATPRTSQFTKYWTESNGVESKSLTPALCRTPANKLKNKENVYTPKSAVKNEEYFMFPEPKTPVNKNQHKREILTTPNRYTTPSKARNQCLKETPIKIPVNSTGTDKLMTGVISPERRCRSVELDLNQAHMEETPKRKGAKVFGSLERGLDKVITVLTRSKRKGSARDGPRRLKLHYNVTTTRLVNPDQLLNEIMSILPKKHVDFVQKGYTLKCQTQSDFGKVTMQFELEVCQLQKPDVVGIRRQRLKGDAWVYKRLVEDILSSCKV
Sequence of Mitogen-activated protein kinase kinase kinase kinase 5 (Homo sapiens) (Q9Y4K4 whole entry, looked up, the tested form may be a part): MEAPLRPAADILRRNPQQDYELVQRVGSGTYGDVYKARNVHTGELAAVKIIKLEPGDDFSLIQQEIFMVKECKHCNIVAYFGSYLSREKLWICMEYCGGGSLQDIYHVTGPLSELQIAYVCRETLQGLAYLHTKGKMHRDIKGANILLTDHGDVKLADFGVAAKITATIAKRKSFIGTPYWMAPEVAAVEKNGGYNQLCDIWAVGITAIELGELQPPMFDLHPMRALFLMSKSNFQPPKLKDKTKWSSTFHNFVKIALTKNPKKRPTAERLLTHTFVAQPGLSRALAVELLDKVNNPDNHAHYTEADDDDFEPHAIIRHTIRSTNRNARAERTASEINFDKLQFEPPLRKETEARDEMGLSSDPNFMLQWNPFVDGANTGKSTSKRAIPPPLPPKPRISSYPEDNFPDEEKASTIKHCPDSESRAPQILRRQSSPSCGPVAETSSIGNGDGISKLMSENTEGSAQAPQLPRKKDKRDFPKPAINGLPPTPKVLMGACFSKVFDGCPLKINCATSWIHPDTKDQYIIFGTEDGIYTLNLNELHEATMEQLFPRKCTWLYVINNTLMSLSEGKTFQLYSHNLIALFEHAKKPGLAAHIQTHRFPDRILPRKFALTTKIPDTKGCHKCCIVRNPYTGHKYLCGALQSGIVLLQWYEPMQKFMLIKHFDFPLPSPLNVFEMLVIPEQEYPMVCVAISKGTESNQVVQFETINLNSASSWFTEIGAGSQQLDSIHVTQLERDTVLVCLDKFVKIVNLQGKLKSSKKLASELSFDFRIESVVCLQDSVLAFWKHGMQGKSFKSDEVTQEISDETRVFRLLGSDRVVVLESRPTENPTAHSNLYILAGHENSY
Sequence of Calcium/calmodulin-dependent protein kinase type II subunit delta (Homo sapiens) (Q13557 whole entry): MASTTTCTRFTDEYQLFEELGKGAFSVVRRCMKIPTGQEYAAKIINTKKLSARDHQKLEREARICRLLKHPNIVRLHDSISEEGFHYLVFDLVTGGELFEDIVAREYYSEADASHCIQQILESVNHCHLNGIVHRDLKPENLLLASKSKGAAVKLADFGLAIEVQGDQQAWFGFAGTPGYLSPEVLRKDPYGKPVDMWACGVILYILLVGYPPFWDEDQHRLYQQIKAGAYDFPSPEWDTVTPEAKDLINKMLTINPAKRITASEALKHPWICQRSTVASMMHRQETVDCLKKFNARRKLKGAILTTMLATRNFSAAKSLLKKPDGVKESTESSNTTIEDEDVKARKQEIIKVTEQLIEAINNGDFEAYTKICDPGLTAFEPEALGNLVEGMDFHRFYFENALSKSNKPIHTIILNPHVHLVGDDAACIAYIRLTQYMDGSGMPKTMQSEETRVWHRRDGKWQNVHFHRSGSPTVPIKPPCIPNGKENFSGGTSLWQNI
Sequence of Ribosomal protein S6 kinase alpha-2 (Homo sapiens) (Q15349 whole entry, the tested form may be a part): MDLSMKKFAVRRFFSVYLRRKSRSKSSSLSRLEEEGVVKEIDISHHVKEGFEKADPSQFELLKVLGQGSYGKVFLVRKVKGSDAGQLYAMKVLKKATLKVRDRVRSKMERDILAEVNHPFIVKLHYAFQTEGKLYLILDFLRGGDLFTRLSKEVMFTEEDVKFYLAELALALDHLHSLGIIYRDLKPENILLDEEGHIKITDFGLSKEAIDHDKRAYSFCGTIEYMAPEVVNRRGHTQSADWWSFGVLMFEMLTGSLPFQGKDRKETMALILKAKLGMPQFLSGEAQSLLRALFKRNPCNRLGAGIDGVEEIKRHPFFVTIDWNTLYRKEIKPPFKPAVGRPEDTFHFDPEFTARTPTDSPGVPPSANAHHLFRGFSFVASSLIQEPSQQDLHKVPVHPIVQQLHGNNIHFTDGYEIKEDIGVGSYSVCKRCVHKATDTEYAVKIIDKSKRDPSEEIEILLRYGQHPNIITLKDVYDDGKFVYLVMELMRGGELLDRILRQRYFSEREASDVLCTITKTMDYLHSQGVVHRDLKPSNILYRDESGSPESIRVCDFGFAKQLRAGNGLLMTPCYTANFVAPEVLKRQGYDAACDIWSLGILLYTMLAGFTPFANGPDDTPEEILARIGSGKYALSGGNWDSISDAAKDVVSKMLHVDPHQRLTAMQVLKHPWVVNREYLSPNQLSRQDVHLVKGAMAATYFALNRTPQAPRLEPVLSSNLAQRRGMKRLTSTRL
Sequence of Serine/threonine-protein kinase Nek3 (Homo sapiens) (P51956 whole entry): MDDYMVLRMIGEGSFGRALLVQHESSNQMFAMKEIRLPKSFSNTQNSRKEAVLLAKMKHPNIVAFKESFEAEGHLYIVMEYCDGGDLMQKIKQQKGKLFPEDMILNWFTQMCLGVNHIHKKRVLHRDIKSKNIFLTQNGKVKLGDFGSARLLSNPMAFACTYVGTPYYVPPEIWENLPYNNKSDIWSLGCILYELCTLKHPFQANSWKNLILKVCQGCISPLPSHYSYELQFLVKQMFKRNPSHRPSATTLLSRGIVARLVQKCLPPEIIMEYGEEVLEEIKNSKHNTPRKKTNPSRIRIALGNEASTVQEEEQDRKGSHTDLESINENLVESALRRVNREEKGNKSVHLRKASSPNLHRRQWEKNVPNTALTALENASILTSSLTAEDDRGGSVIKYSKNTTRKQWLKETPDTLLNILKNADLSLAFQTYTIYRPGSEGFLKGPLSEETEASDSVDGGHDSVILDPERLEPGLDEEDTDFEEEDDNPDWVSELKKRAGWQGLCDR
Sequence of Serine/threonine-protein kinase PLK2 (Homo sapiens) (Q9NYY3 whole entry, looked up): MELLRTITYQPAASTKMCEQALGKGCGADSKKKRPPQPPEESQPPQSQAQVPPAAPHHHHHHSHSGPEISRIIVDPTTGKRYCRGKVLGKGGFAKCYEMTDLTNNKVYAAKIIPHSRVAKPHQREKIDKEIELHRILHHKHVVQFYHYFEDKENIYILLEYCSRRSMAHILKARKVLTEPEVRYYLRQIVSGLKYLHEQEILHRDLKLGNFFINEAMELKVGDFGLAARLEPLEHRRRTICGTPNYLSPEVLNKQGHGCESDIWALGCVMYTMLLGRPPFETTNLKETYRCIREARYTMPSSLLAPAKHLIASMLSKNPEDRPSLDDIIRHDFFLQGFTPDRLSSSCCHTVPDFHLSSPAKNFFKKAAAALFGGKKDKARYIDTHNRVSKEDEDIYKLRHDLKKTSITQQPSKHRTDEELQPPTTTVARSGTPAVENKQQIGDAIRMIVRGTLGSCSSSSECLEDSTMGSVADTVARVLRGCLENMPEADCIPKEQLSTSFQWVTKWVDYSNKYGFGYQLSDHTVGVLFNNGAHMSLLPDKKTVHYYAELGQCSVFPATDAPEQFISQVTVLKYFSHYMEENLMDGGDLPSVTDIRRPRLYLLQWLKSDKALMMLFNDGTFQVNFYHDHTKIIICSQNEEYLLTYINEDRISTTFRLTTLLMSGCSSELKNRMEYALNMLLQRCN
Sequence of Eukaryotic translation initiation factor 2-alpha kinase 1 (Homo sapiens) (Q9BQI3 whole entry): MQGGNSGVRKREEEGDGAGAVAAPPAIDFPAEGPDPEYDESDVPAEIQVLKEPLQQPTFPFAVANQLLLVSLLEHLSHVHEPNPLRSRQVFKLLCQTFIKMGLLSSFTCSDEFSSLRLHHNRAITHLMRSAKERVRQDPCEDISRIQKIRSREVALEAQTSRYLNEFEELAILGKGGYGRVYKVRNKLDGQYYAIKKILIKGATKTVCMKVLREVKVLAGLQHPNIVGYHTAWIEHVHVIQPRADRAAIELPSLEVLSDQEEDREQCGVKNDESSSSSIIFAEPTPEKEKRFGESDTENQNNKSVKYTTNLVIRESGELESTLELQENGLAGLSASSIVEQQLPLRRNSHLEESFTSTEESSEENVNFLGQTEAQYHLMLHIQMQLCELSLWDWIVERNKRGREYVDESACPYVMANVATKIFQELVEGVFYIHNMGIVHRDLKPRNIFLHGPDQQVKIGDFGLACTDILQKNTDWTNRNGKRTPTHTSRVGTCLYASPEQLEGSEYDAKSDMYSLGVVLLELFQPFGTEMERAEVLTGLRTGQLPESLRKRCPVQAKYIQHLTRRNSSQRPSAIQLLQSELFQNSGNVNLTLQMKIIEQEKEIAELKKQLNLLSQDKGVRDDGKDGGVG

## O=C1c2ccc(Nc3ccc(F)cc3F)cc2CCc2ccc(OC[C@H](O)CO)cc21 [Skepinone-L]
[1]
  Activity: 100%
[2]
  Activity: 103%
[3]
  Activity: 107%
[4]
  Activity: 79%
[5]
  Activity: 81%
[6]
  Activity: 106%
[7]
  Activity: 96%
[8]
  Activity: 85%
[9]
  Activity: 128%
[10]
  Activity: 100%
[11]
  Activity: 53%
[12]
  Activity: 89%
[13]
  Activity: 100%
[14]
  Activity: 84%
[15]
  Activity: 100%
[16]
  Activity: 43%
[17]
  Activity: 106%
